Measurements published in US20110293745A1, “AURORA KINASE INHIBITORS” (SUNESIS PHARMACEUTICALS, INC., priority 2008, published 2011).

Experiments:
[1] = tested on: broad panel of cancer cell lines; test: cells; settings: Homo sapiens, 96 h, read-out: anti-proliferative IC50 values
[2] = tested on: pHH3 in HCT 116 tumor xenograft; test: Phospho-histone H3 in vivo (Western blot of tumor); parameters: species or system mouse; settings: single 50 mg/kg and 100 mg/kg IP; 3 hr, 6 hr, 10 hr post administration
Source text: For each of the studies of compound distribution, pHH3 levels, and tumor section microscopy, after the tumors reached an average volume of 500 mm^3, the animals were weighed and sorted into randomized groups before initial dosing.

Calu-6 = test: cells; settings: Homo sapiens, Calu-6, 96 h, read-out: BrdU IC50
Protocol: (§1) Cellular proliferation was assessed using the Cell Proliferation ELISA, bromodeoxyuridine (BrdU) kit (Roche) including reagents, according to the kit protocol.

H1299 = test: cells; settings: Homo sapiens, NCI-H1299, 96 h, read-out: BrdU IC50
Protocol: as §1

A375 = test: cells; settings: Homo sapiens, A-375, 96 h, read-out: BrdU IC50
Protocol: as §1

A2780 = test: cells; settings: Homo sapiens, A2780, 96 h, read-out: BrdU IC50
Protocol: as §1

PC3 = test: cells; settings: Homo sapiens, PC-3, 96 h, read-out: BrdU IC50
Protocol: as §1

MDA-MB-231 = test: cells; settings: Homo sapiens, MDA-MB-231, 96 h, read-out: BrdU IC50
Protocol: as §1

HCT116 = test: cells; settings: Homo sapiens, HCT-116, 96 h, read-out: BrdU IC50
Protocol: as §1

HeLa = test: cells; settings: Homo sapiens, 96 h, read-out: BrdU IC50
Protocol: as §1

HCT 116 cells = test: Fluorescent imaging (DNA and tubulin); format: cell-based, human; settings: 16 nM, 72 hr
Protocol: Cells were then fixed with 4% paraformaldehyde for 20 min at room temperature, washed with 1×PBS three times, permeabilized with 0.1% Triton® X-100 nonionic surfactant for 5 min at room temperature, washed with 1×PBS twice, blocked with 10% fetal bovine serum (FBS) in PBS for 2 hr at room temperature. The cells were incubated in a diluted alpha-tubulin primary antibody solution in 10% FBS for 2 days at 4° C., and stained with DAPI (DNA/.blue) and with a diluted FITC-labeled secondary antibody (tubulin/green) solutions in 10% FBS for 1 hr at room temperature away from light. Cells were then washed in 1×PBS and the coverslips were mounted on slides and analyzed with a […]2 fluorescence microscope with a 63× oil immersion objective. Images were captured on a […] camera and analyzed using Image-Pro software. For both images captured, the same objective was used.

A375 melanoma xenograft = test: In vivo efficacy, mouse xenograft
Protocol: (§2) Percent TGI is then calculated with the following equation: […]
(§3) Time To Endpoint (TTE) was calculated for each individual animal to reach the predetermined study end point where the tumor volume becomes 1200 mm^3 or 10% of body weight or a greater than 20% body weight loss for two sequential measurements. The TTE is calculated and the median value is recorded for the group. Tumor Growth Delay (TGD) is then calculated with the following equation: […]
A375 melanoma tumor fragments (1 mm^3) were implanted subcutaneously in the right hind flank of mice. After 9 days, when tumors reached an average volume of approximately 110 mm^3, animals were weighed, randomized by tumor volume (l×w×h×0.52), and assigned to the various study groups before initial dosing.

MiaPaca2 = test: Cell Proliferation ELISA, BrdU; format: cell-based; settings: Homo sapiens, MIA PaCa-2; MiaPaca2 (Pancreatic), 96 hr
HT-29 = test: cells; settings: Homo sapiens, HT-29, 96 h, read-out: BrdU IC50
[3] = tested on: HCT 116 colon cancer xenograft; test: In vivo efficacy, mouse xenograft
Protocol: HCT 116 colon cancer cells [200 μL of a 2.5×10^7 cells/mL suspension (1:1 DPBS with cells:Matrigel)] were subcutaneously implanted in the right hind flank of female nu/nu athymic mice. After 7 days, when tumors reached an average volume of approximately 200 mm^3, animals were weighed, randomized by tumor volume (l×w×h×0.52), and assigned to the various study groups before initial dosing.
[…]. The animals on the twice-weekly schedule received compound on Days 1, 4, 8, 11, 15 and 18. […].
as §2
where TVt is the average tumor volume on Day 10 and TV, is the initial average tumor volume. ANOVA was performed to calculate statistical significance, defined as p<0.05.
Time To Endpoint (TTE) was calculated for each individual animal to reach the predetermined study end point where the tumor volume becomes 1200 mm^3 or 10% of body weight or a greater than 20% body weight loss for two sequential measurements. The TTE is calculated and the median value is recorded for the group. Tumor Growth Delay (TGD) is then calculated with the following equation:
TGD=median TTEtreatment−median TTEcontrol

[4] = tested on: MDA-MB-231 breast cancer xenograft; test: In vivo efficacy, mouse xenograft
Protocol: as §2, §3
MDA-MB-231 breast cancer cells [200 μL of a 2.5×10^7 cells/mL suspension (1:1 DPBS with cells:Matrigel)] were implanted subcutaneously in the right hind flank of mice. After 13 days, when tumors reached n average volume of approximately 95 mm^3, animals were weighed, randomized by tumor volume (l×w×h×0.52), and assigned to the various study groups before initial dosing.

[5] = HCT 116 (Colon), 75 mg/kg biw × 3
[6] = HCT 116 (Colon), 100 mg/kg biw × 3
[7] = HCT 116 (Colon), 150 mg/kg biw × 3

CS(=O)(=O)O.O=C(Nc1cccc(Cl)c1)Nc1ncc(CCNc2ncnc3ccsc23)s1 [Compound 1, 1-(3-chlorophenyl)-3-{5-[2-(thieno[3,2-d]pyrimidin-4-ylamino)ethyl]thiazo}-urea]
IC50 [1]: 2 to 10 nM
level of pHH3 in tumor versus vehicle-treated mice [2]: decreased
IC50 (Calu-6): 13.3 nM
IC50 (H1299): 4 nM
IC50 (A375): 5.9 nM
IC50 (A2780): 1.8 nM
IC50 (PC3): 4.4 nM
IC50 (MDA-MB-231): 8.1 nM
IC50 (HCT116): 6.4 nM
IC50 (HeLa): 9.3 nM
cell morphology (HCT 116 cells): formation of large polyploid cells
% TGI (A375 melanoma xenograft; 42.5 mg/kg biw × 3): 1.2%
TGD (A375 melanoma xenograft; 42.5 mg/kg biw × 3): 0 days
% TGI (A375 melanoma xenograft; 85 mg/kg biw × 3): 20.6%
TGD (A375 melanoma xenograft; 85 mg/kg biw × 3): 0 days
% TGI (A375 melanoma xenograft; 170 mg/kg biw × 3): 65.4%
TGD (A375 melanoma xenograft; 170 mg/kg biw × 3): 7.4 days
IC50 (MiaPaca2): 9.1 nM
IC50 (HT-29): 24.4 nM
TGD ([3]; 100 mg/kg, qd × 5, 9 d off × 2): 45 days
TGD ([3]; 125 mg/kg, Qw × 3): 22.5 days
TGD ([3]; 150 mg/kg, biw × 3): 32.5 days
% TGI [3, 5]: 67.5%
TGD [3, 5]: 22 days
% TGI [3, 6]: 79.4%
TGD [3, 6]: 25.1 days
% TGI [3, 7]: 95.6%
TGD [3, 7]: 32.5 days
% TGI ([4]; 42.5 mg/kg biw × 3): 20.6%
TGD ([4]; 42.5 mg/kg biw × 3): 3.5 days
% TGI ([4]; 85 mg/kg biw × 3): 19.2%
TGD ([4]; 85 mg/kg biw × 3): 4.0 days
% TGI ([4]; 170 mg/kg biw × 3): 73.8%
TGD ([4]; 170 mg/kg biw × 3): 14.1 days
